Assay results taken from patent publication US20250230165A1, “HETEROCYCLIC COMPOUNDS FOR USE IN THE TREATMENT OF CANCER” (ARTIOS PHARMA LIMITED, priority 2021, published 2025).

Target: T1, Human Polθ polymerase domain (aa1820-2590) (Homo sapiens, UniProt O75417)
T1 construct: Human Polθ polymerase domain (aa1820-2590) was expressed in E. coli; made in house; host or cells: E. coli
T1 sequence (O75417 1820-2590): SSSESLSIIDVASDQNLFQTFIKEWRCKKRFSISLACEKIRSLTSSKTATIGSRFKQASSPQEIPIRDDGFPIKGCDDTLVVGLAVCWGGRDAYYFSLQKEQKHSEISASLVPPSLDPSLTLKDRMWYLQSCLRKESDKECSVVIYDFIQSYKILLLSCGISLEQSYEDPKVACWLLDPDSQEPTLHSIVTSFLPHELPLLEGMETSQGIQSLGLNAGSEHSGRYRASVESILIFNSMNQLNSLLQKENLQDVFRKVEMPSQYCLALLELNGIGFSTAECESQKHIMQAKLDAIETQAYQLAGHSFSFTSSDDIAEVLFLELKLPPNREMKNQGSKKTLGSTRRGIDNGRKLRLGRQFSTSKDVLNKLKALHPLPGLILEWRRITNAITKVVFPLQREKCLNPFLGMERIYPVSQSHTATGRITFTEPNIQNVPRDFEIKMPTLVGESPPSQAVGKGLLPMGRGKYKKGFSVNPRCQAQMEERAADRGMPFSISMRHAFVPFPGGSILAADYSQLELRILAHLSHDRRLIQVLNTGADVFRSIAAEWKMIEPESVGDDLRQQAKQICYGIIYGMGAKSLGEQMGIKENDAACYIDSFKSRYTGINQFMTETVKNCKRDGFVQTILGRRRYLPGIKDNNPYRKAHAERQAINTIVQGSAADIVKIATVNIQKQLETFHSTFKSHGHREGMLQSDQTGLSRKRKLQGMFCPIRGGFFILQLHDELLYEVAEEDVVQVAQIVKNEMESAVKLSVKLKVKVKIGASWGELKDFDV
Test: Polθ Polymerase Domain Kinact/KI Assay (PicoGreen)
Assay type: biochemical
Conditions: 0.8 nM Polθ, 100 nM DNA substrate, kobs vs [I] fit for 2-step covalent inhibitor
How it was run: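 PicoGreen fluorescence read-out of primer extension; progress curves per inhibitor concentration fitted for kobs, then kobs vs [I] fitted to a two-step covalent model to give Kinact and KI. Conditions: 0.8 nM enzyme, 100 nM DNA substrate, […].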

SMILES	Kinact/Kl
C#CC(=O)N1CCn2nc(CN3C[C@H]4CC(=O)N(c5cc(C(F)(F)F)cc(C)n5)[C@@H]4C(=O)N(C)c4cccc(C)c43)cc2C1 [Example 198, (3aR,11aS)-6,10-dimethyl-1-(6-methyl-4-(trifluoro-methyl)pyridin-2-yl)-5-((5-propiolo-yl-4,5,6,7-tetra-hydropyrazolo-[1,5-a]pyrazin-2-yl)methyl)-1,3a,4,5, 10,11a-hexahydro-2H-benzo[b]pyr-rolo[2,3-f][1,4] diazocine-2,11(3H)-dione]	700000 M⁻¹ s⁻¹
C=CC(=O)N1CCN2C[C@@H](CN3C[C@H]4CC(=O)N(c5cc(C(F)(F)F)cc(C)n5)[C@@H]4C(=O)N(C)c4cccc(F)c43)N(C)CC2C1 (single isomer, unassigned) [Example 140b]	230000 M⁻¹ s⁻¹
Cc1cc(C(F)(F)F)cc(N2C(=O)C[C@@H]3CN(Cc4ccc5c(c4)C(CC#N)N(C(=O)/C=C/CN(C)C)C5)c4c(Cl)cccc4N(C)C(=O)[C@H]32)n1 (single isomer, unassigned) [Example 311a]	1.12e+06 M⁻¹ s⁻¹
C=CC(=O)N1CC2CC(C1)N2CCN1C[C@H]2CC(=O)N(c3cc(C(F)(F)F)cc(C)n3)[C@@H]2C(=O)N(C)c2cccc(C)c21 [Example 261, (3aR,11aS)-5-(2-(3-acryloyl-3,6-diazabicyclo[3.1.1]heptan-6-yl)ethyl)-6,10-dimethyl-1-(6-methyl-4-(trifluoromethyl)pyridin-2-yl)-1,3a,4,5,10,11a-hexahydro-2H-benzo[b]pyrrolo[2,3-f][1,4]diazocine-2,11(3H)-dione]	340000 M⁻¹ s⁻¹
C=CC(=O)N1CC(C)(N2CCN(CCN3C[C@H]4CC(=O)N(c5cc(C(F)(F)F)cc(C)n5)[C@@H]4C(=O)N(C)c4cccc(C)c43)CC2)C1 [Example 72, (3aR,11aS)-5-(2-(4-(1-acryloyl-3-methylazetidin-3-yl)piperazin-1-yl)ethyl)-6,10-dimethyl-1-(6-methyl-4-(trifluoromethyl)pyridin-2-yl)-1,3a,4,5,10,11a-hexahydro-2H-benzo[b]pyrrolo[2,3-f][1,4]diazocine-2,11(3H)-dione]	2.36e+06 M⁻¹ s⁻¹
C=CC(=O)N1CC(N2CCN(CCN3C[C@H]4CC(=O)N(c5cc(C(F)(F)F)cc(C)n5)[C@@H]4C(=O)N(C)c4cc(F)cc(C5CC5)c43)CC2)C1 [Example 19, (3aR,11aS)-5-(2-(4-(1-acryloylazetidin-3-yl)piperazin-1-yl)ethyl)-6-cyclopropyl-8-fluoro-10-methyl-1-(6-methyl-4-(trifluoromethyl)pyridin-2-yl)-1,3a,4,5,10,11a-hexahydro-2H-benzo[b]pyrrolo[2,3-f][1,4]diazocine-2,11(3H)-dione]	350000 M⁻¹ s⁻¹
C=CC(=O)N1CC2CN(CCN3C[C@H]4CC(=O)N(c5cc(C(F)(F)F)cc(C)n5)[C@@H]4C(=O)N(C)c4cccc(F)c43)CC(C1)O2 [Example 5, (3aR,11aS)-5-(2-(7-acryloyl-9-oxa-3,7-diazabicyclo[3.3.1]nonan-3-yl)ethyl)-6-fluoro-10-methyl-1-(6-methyl-4-(trifluoromethyl)pyridin-2-yl)-1,3a,4,5,10,11a-hexahydro-2H-benzo[b]pyrrolo[2,3-f][1,4]diazocine-2,11(3H)-dione]	140000 M⁻¹ s⁻¹
C=CC(=O)N1CC(c2nc(CN3C[C@H]4CC(=O)N(c5cc(C(F)(F)F)cc(C)n5)[C@@H]4C(=O)N(C)c4cccc(F)c43)c[nH]2)C1 [Example 122, (3aR,11aS)-5-((2-(1-acryloylazetidin-3-yl)-1H-imidazol-4-yl)methyl)-6-fluoro-10-methyl-1-(6-methyl-4-(trifluoromethyl)pyridin-2-yl)-1,3a,4,5,10,11a-hexahydro-2H-benzo[b]pyrrolo[2,3-f][1,4]diazocine-2,11(3H)-dione]	610000 M⁻¹ s⁻¹
C=C(CN(C)C)C(=O)NCc1ccc(CN2C[C@H]3CC(=O)N(c4cc(C(F)(F)F)cc(C)n4)[C@@H]3C(=O)N(C)c3cccc(C)c32)cn1 [Example 190, N-((5-(((3aR,11aS)-6,10-dimethyl-1-(6-methyl-4-(trifluoro-methyl)pyridin-2-yl)-2,11-dioxo-1,2,3,3a,4,10,11, 11a-octahydro-5H-benzo[b]pyrrolo [2,3-f][1,4]diazo-cin-5-yl)methyl)-pyridin-2-yl)meth-yl)-2-((dimethyl-amino)methyl)-acrylamide]	2.93e+06 M⁻¹ s⁻¹
Cc1cc(C(F)(F)F)cc(N2C(=O)C[C@@H]3CN(CCCCC4CN(C(=O)/C(Cl)=C/CN(C)C)C4)c4c(C)cccc4N(C)C(=O)[C@H]32)n1 [Example 254, (3aR,11aS)-5-(4-(1-((Z)-2-chloro-4-(dimethylamino)but-2-enoyl)azetidin-3-yl)butyl)-6,10-dimethyl-1-(6-methyl-4-(trifluoromethyl)pyridin-2-yl)-1,3a,4,5,10,11a-hexahydro-2H-benzo[b]pyrrolo[2,3-f][1,4]diazocine-2,11(3H)-dione]	2.13e+06 M⁻¹ s⁻¹
Cc1cc(C(F)(F)F)cc(N2C(=O)C[C@@H]3CN(CCOCC4CN(C(=O)C5=CCCN(C)C5)C4)c4c(C)cccc4N(C)C(=O)[C@H]32)n1 [Example 197, (3aR,11aS)-6,10-dimethyl-5-(2-((1-(1-methyl-1,2,5,6-tetrahydropyridine-3-carbonyl)azeti-din-3-yl)methoxy)-ethyl)-1-(6-methyl-4-(trifluoromethyl)-pyridin-2-yl)-1,3a, 4,5,10,11a-hexa-hydro-2H-benzo [b]pyrrolo[2,3-f] [1,4]diazocine-2,11(3H)-dione]	1.67e+06 M⁻¹ s⁻¹
C=CC(=O)N1CC2(C1)[C@H](C)N(CCN1C[C@H]3CC(=O)N(c4cc(C(F)(F)F)cc(C)n4)[C@@H]3C(=O)N(C)c3cccc(F)c31)C[C@H]1COCCN12 (single isomer, unassigned) [Example 8]	2e+06 M⁻¹ s⁻¹
C=C(CN(C)C)C(=O)N1CC(CC(F)CCN2C[C@H]3CC(=O)N(c4cc(C(F)(F)F)cc(C)n4)[C@@H]3C(=O)N(C)c3cccc(Cl)c32)C1 (stereo partly drawn) [Example 301, (3aR,11aS)-6-chloro-5-(4-(1-(2-((dimethylamino)methyl)acryloyl)azetidin-3-yl)-3-fluorobutyl)-10-methyl-1-(6-methyl-4-(trifluoromethyl)pyridin-2-yl)-1,3a,4,5,10,11a-hexahydro-2H-benzo[b]pyrrolo[2,3-f][1,4]diazocine-2,11(3H)-dione]	1.78e+06 M⁻¹ s⁻¹
C=C(CN(C)C)C(=O)N[C@H]1CCn2cc(CN3C[C@H]4CC(=O)N(c5cc(C(F)(F)F)cc(C)n5)[C@@H]4C(=O)N(C)c4cccc(C)c43)nc2C1 (racemic) [Example 330a, N-((S/R)-2-(((3aR, 11aS)-6,10-dimethyl-1-(6-methyl-4-(trifluoromethyl)-pyridin-2-yl)-2,11-dioxo-1,2,3,3a,4,10, 11,11a-octahydro-5H-benzo[b]pyrrolo [2,3-f][1,4]diazocin-5-yl)methyl)-5,6,7,8-tetrahydroimidazo [1,2-a]pyridin-7-yl)-2-((dimethylamino)-methyl)acrylamide]	2.74e+06 M⁻¹ s⁻¹
C=CC(=O)N1C[C@H]2CN(CCN3C[C@H]4CC(=O)N(c5cc(C(F)(F)F)cc(C)n5)[C@@H]4C(=O)N(C)c4cccc(F)c43)CCN2C(=O)[C@@H]1C (single isomer, unassigned) [Example 61]	500000 M⁻¹ s⁻¹
C=CC(=O)N1C[C@H]2CN(CCN3C[C@H]4CC(=O)N(c5cc(C(F)(F)F)cc(C)n5)[C@@H]4C(=O)N(C)c4cccc(F)c43)CCN2C(=O)[C@H]1C (single isomer, unassigned) [Example 58]	500000 M⁻¹ s⁻¹
C=CC(=O)N1CC[C@H](N(C)CCN2C[C@H]3CC(=O)N(c4cc(C(F)(F)F)cc(C)n4)[C@@H]3C(=O)N(C)c3cccc(Cl)c32)[C@H](F)C1 [Example 67, (3aR,11aS)-5-(2-(((3R,4S)-1-acryloyl-3-fluoropiperidin-4-yl)(methyl)amino)ethyl)-6-chloro-10-methyl-1-(6-methyl-4-(trifluoromethyl)pyridin-2-yl)-1,3a,4,5,10,11a-hexahydro-2H-benzo[b]pyrrolo[2,3-f][1,4]diazocine-2,11(3H)-dione]	2.32e+06 M⁻¹ s⁻¹
C=CC(=O)N1C[C@@H]2CN(CCN3C[C@H]4CC(=O)N(c5cc(C(F)(F)F)cc(C)n5)[C@@H]4C(=O)N(C)c4cccc(F)c43)CCN2[C@H](C)C1 [Example 63a, (3aR,11aS)-5-(2-((6R/S,9aS/R)-8-acryloyl-6-methyloctahydro-2H-pyrazino[1,2-a]pyrazin-2-yl)ethyl)-6-fluoro-10-methyl-1-(6-methyl-4-(trifluoromethyl)pyridin-2-yl)-1,3a,4,5,10,11a-hexahydro-2H-benzo[b]pyrrolo[2,3-f][1,4]diazocine-2,11(3H)-dione]	3.1e+06 M⁻¹ s⁻¹
